The text below walks through data of article PMC7587356, “High-Throughput Screening for Inhibitors of the SARS-CoV-2 Protease Using a FRET-Biosensor” (Molecules, 2020).

Where a name gives a salt, the structure may show the parent alone. Read-outs that look alike come from different tables or passages of the source.

This experiment addresses SARS-CoV-2 3CLpro (Severe acute respiratory syndrome coronavirus 2, UniProt P0DTD1). Description: biochemical. It counts as biochemical. Set-up: Replicate_1 / Replicate_2 / mean / mean (LOPAC_screen_w_protease): unit not given here. Particulars: for inhibition at 5 µM: 4 h; for mean (LOPAC screen with protease) / Replicate_1 (LOPAC screen with protease) / Replicate_2 (LOPAC screen with protease): primary screen at 5 µM.

The mark [1] stands for this setting: sheet LOPAC_screen_w_protease, LOPAC1280 at 5 µM, mean of two replicates.
[2] abbreviates: sheet LOPAC_screen_w_protease, LOPAC1280 at 5 µM, replicate 1.
Setting [3] is: sheet LOPAC_screen_w_protease, LOPAC1280 at 5 µM, replicate 2.
Setting [4] is: sheet LOPAC_screen_w_protease, primary screen with protease, mean of two replicates, read-out: mean.
Setting [5] is: sheet LOPAC_screen_w_protease, primary screen with protease, replicate 1, read-out: Replicate_1.
[6] abbreviates: sheet LOPAC_screen_w_protease, primary screen with protease, replicate 2, read-out: Replicate_2.
Setting [7] is: sheet LOPAC_screen_w_protease, LOPAC1280 primary screen at 5 µM, with protease, mean of the two replicates.
Setting [8] is: sheet LOPAC_screen_w_protease, LOPAC1280 primary screen at 5 µM, with protease, replicate 1.
Setting [9] is: sheet LOPAC_screen_w_protease, LOPAC1280 primary screen at 5 µM, with protease, replicate 2.
The mark [10] stands for this setting: sheet LOPAC_screen_w_protease, mean of two replicates.
[11] abbreviates: sheet LOPAC_screen_w_protease, replicate 1.
Where [12] appears, read: sheet LOPAC_screen_w_protease, replicate 2.
The mark [13] stands for this setting: sheet LOPAC_screen_w_protease, LOPAC1280 primary screen with protease, 5 µM compound, mean of the two replicates.
The mark [14] stands for this setting: sheet LOPAC_screen_w_protease, LOPAC1280 primary screen with protease, 5 µM compound, replicate 1.
Setting [15] is: sheet LOPAC_screen_w_protease, LOPAC1280 primary screen with protease, 5 µM compound, replicate 2.
The mark [16] stands for this setting: LOPAC1280 primary screen with protease, 5 µM compound, replicate 1, read-out: Replicate_1 (LOPAC_screen_w_protease).
Where [17] appears, read: LOPAC1280 primary screen with protease, 5 µM compound, replicate 2, read-out: Replicate_2 (LOPAC_screen_w_protease).
Where [18] appears, read: LOPAC1280 primary screen with protease, 5 µM compound, mean of two replicates.
[19] abbreviates: sheet LOPAC_screen_w_protease, primary screen with protease, 5 µM, mean of two replicates, read-out: mean.
Setting [20] is: sheet LOPAC_screen_w_protease, primary screen with protease, 5 µM, replicate 1, read-out: Replicate_1.
Where [21] appears, read: sheet LOPAC_screen_w_protease, primary screen with protease, 5 µM, replicate 2, read-out: Replicate_2.
Where [22] appears, read: LOPAC1280 primary screen with protease, 5 µM compound, mean of the two replicates.
[23] abbreviates: LOPAC1280 primary screen with protease, 5 µM compound, replicate 1.
Setting [24] is: LOPAC1280 primary screen with protease, 5 µM compound, replicate 2.
Setting [25] is: sheet LOPAC_screen_w_protease, primary screen with protease, compound at 5 µM, mean of two replicates.
The mark [26] stands for this setting: sheet LOPAC_screen_w_protease, primary screen with protease, compound at 5 µM, replicate 1.
Where [27] appears, read: sheet LOPAC_screen_w_protease, primary screen with protease, compound at 5 µM, replicate 2.
Setting [28] is: sheet LOPAC_screen_w_protease, primary screen with protease, 5 µM, mean of two replicates.
[29] abbreviates: sheet LOPAC_screen_w_protease, primary screen with protease, 5 µM, replicate 1.
The mark [30] stands for this setting: sheet LOPAC_screen_w_protease, primary screen with protease, 5 µM, replicate 2.

As for `Nn1nnc2ccccc21` [1-Aminobenzotriazole], the mean under setting [1] is reported as 1.253. Moreover, the Replicate_1 under setting [2] is listed as 1.647. The Replicate_2 under setting [3] is 0.8595.
Consider `O=C(O)C1=CCCNC1` [Guvacine hydrochloride], for which the inhibition at 5 µM came out at 2.3% under setting [4], 4.35% under setting [5] and 0.255% under setting [6].
`COC(=O)c1c(-c2cc(OC)c(OC)c(OC)c2)c2ccnc(OCc3ncccn3)c2c(=O)n1Cc1ccnc(C)c1` [T-0156] yielded a mean under setting [7] of 0.7124. Also, the Replicate_1 under setting [8] is 1.2. The Replicate_2 under setting [9] is recorded as 0.2248.
In the case of (+)-Catechin Hydrate, under setting [10], the “mean (LOPAC screen with protease)” value was found to be 22.7149. Besides, the “Replicate_1 (LOPAC screen with protease)” value under setting [11] came to 22.57. The “Replicate_2 (LOPAC screen with protease)” value under setting [12] was determined as 22.8597.
`CC(COc1ccc(/C=C/c2ccccc2)cc1)[N+](C)(C)C.[I-]` (stereo not shown) gave a mean under setting [13] of 5.814. The same compound registered a Replicate_1 under setting [14] of 7.703. Under setting [15], this compound displayed a Replicate_2 of 3.926.
Turning to L-Methionine sulfoximine, the “Replicate_1 (LOPAC_screen_w_protease)” value amounted to 2.433, the “Replicate_2 (LOPAC_screen_w_protease)” value is 0.2989 and the “mean (LOPAC_screen_w_protease)” value stood at 1.366.
Turning to `O=C1c2c(O)cc(O)cc2O[C@H](c2ccc(O)c(O)c2)[C@H]1O` (racemic) [(±)-Taxifolin], under setting [10], the “mean (LOPAC screen with protease)” value came out at 7.529. Further, the “Replicate_1 (LOPAC screen with protease)” value under setting [11] stood at 9.2588. For the same compound, under setting [12], the “Replicate_2 (LOPAC screen with protease)” value is listed as 5.799.
`Nc1ncnc2c1c(-c1ccc(Oc3ccccc3)cc1)cn2C1CCCC1` came in with a mean under setting [7] of 0.6123. This compound came in with a Replicate_1 under setting [8] of 0.3054. Further, the Replicate_2 under setting [9] is on record as 0.9192.
In the case of `COC(=O)C1=CCCN(C)C1` [Arecoline hydrobromide], the inhibition at 5 µM was 1.64% under setting [16] and 1.16% under setting [17]. For the same compound, the “mean (LOPAC_screen_w_protease)” value under setting [18] is given as 1.398.
As for `C[N+]1(C)[C@@H]2CC[C@H]1C[C@@H](OC(=O)C(CO)c1ccccc1)C2` (stereo partly shown) [Atropine methyl nitrate], the inhibition at 5 µM by setting is: under setting [19], -0.0687%; under setting [20], 0.687%; under setting [21], -0.825%.
For `Nc1nc(OCc2ccccc2)c2nc[nH]c2n1` [O6-benzylguanine], the inhibition at 5 µM under setting [16] stood at 0.721% and the inhibition at 5 µM under setting [17] worked out at 2.08%. The “mean (LOPAC_screen_w_protease)” value under setting [18] worked out at 1.401.
The compound `Cl.c1ccc([C@H]2CN3CCSC3=N2)cc1` [(-)-Tetramisole hydrochloride] came in with a Replicate_1 of 0.0709, a Replicate_2 of 1.236 and a mean of 0.6536.
The compound `Cc1nc(-c2ccc(-c3ccc(C(=O)N4CCc5cc6c(cc54)C4(CCN(C)CC4)CO6)cc3)c(C)c2)no1.Cl` [SB 224289 hydrochloride] returned a mean under setting [1] of 1.002. Under setting [2], this compound yielded a Replicate_1 of 2.397. This compound also had a Replicate_2 under setting [3] of -0.3926.
`COc1ccc2cc([C@H](C)C(=O)[O-])ccc2c1.[Na+]` [(-)-Naproxen sodium] registered a Replicate_2 of -1.573 and a mean of 0.4756.
On to `Cc1cn([C@H]2C=C[C@@H](CO)O2)c(=O)[nH]c1=O` [2',3'-didehydro-3'-deoxythymidine], for which the “mean (LOPAC_screen_w_protease)” value under setting [22] is reported as 1.906. Besides, the “Replicate_1 (LOPAC_screen_w_protease)” value under setting [23] was 2.073. In addition, the “Replicate_2 (LOPAC_screen_w_protease)” value under setting [24] is recorded as 1.738.
The compound `Cl.NC1(C(=O)O)CCCCC1` gave a mean under setting [25] of 2.729. Further, the Replicate_1 under setting [26] is reported as 1.961. Also, under setting [27], the Replicate_2 is 3.496.
As for `O=C(c1cc(O)c(O)c([N+](=O)[O-])c1)c1ccccc1F` [Ro 41-0960], the mean (sheet LOPAC_screen_w_protease, LOPAC1280 primary screen at 5 µM, with protease, mean of two replicates) was -0.9763. Under setting [8], this compound returned a Replicate_1 of -1.184. In addition, the Replicate_2 under setting [9] is -0.7687.
`NC(=S)c1ccc[n+]([C@@H]2O[C@@H](COP(=O)([O-])OP(=O)(O)OC[C@H]3O[C@@H](n4cnc5c(N)ncnc54)C(OP(=O)([O-])O)[C@H]3O)C(O)C2O)c1.[Na+]` (stereo partly shown) [Thio-NADP sodium]: the “mean (LOPAC_screen_w_protease)” value under setting [18] is reported as 1.323. Also, under setting [23], the “Replicate_1 (LOPAC_screen_w_protease)” value came to 2.439. Besides, under setting [24], the “Replicate_2 (LOPAC_screen_w_protease)” value came out at 0.2062.
Compound `O=C([O-])CCC(NC(=O)c1ccccc1C(=O)[O-])C(=O)[O-].[Na+].[Na+].[Na+]` [Phthalamoyl-L-glutamic acid trisodium] yielded a mean under setting [28] of 0.2394. Under setting [29], the Replicate_1 worked out at 0.8142. For the same compound, under setting [30], the Replicate_2 is given as -0.3354.
In the same order, the values of `CCCCCC(O)CCCC(=O)O.[Na]` (stereo not shown) [5-hydroxydecanoic acid sodium] are 0.3617, 2.03 and -1.306.
With `CC(=O)OCC(=O)[C@@]1(O)CC[C@H]2[C@@H]3CCC4=CC(=O)CC[C@]4(C)[C@H]3C(=O)C[C@@]21C` [Cortisone 21-acetate], the inhibition at 5 µM by setting is: under setting [16], 2.66%; under setting [17], 0.881%. For the same compound, under setting [22], the “mean (LOPAC_screen_w_protease)” value is recorded as 1.771.
Regarding `COCc1nc2c([nH]1)c(=O)n(C)c(=O)n2CC(C)C`, the mean under setting [13] is 5.36. The compound also yielded a Replicate_1 under setting [14] of 6.304. This compound also returned a Replicate_2 under setting [15] of 4.4152.
Take `O=C(O)c1nn(Cc2ccc(Cl)cc2Cl)c2ccccc12` [Lonidamine]: the inhibition at 5 µM was found to be 0.331% under setting [19], 0.572% under setting [20] and 0.0889% under setting [21].
Regarding `CC(C)NCC(O)c1ccc(O)c(O)c1.Cl` (single isomer, unassigned; (-)) [(-)-Isoproterenol hydrochloride], under setting [22], the “mean (LOPAC_screen_w_protease)” value is on record as 2.084. Further, the “Replicate_2 (LOPAC_screen_w_protease)” value under setting [24] is 1.275.
Regarding `CC(C)[C@H]1CN[C@H](C(=O)O)[C@H]1CC(=O)O` [Dihydrokainic acid], the mean under setting [7] came out at 0.7305. This compound also showed a Replicate_1 under setting [8] of 1.689. The compound further showed a Replicate_2 under setting [9] of -0.2284.
With `CCn1nc(C(=O)O)c(=O)c2cc3c(cc21)OCO3` [Cinoxacin], the inhibition at 5 µM runs as follows: under setting [16], -0.0118%; under setting [17], 4.09%. Moreover, the “mean (LOPAC_screen_w_protease)” value under setting [22] was found to be 2.037.
Under setting [7], `CCCCCCCCCC(=O)NC(CN1CCOCC1)[C@H](O)c1ccccc1.Cl` (mixture of isomers) had a mean of 0.5952. The same compound showed a Replicate_1 under setting [8] of 1.232. Further, the Replicate_2 under setting [9] is given as -0.042.
For the compound `Nc1ncnc2c1ncn2[C@@H]1O[C@H](COP(=O)(O)CP(=O)(O)OP(=O)([O-])[O-])[C@H](O)C1O.[Li+].[Li+]` (stereo partly shown), the mean under setting [25] was 2.729. Further, the Replicate_1 under setting [26] came to 1.677. Under setting [27], the Replicate_2 is 3.782.
Under setting [25], `Cl.Clc1ccc(Cn2c(CN3CCCC3)nc3ccccc32)cc1` [Clemizole hydrochloride] returned a mean of 3.083. Under setting [26], this compound had a Replicate_1 of 2.873. The Replicate_2 under setting [27] was found to be 3.2929.
`O=C1CCc2cc(OCCCCc3nnnn3C3CCCCC3)ccc2N1` [Cilostazol]: the inhibition at 5 µM turned out to be 2.16% under setting [4], 1.9% under setting [5] and 2.42% under setting [6].
`C[C@]12CCC(=O)C=C1CC[C@@H]1[C@@H]2CC[C@]2(C)C(=O)CC[C@@H]12` [4-Androstene-3,17-dione]: the inhibition at 5 µM by setting is: (read-out: Replicate_1) 0.757%; (read-out: Replicate_2) 1.66%; (read-out: mean) 1.21%.
In turn, `CC(N)Cc1c[nH]c2ccc(OCc3cccs3)cc12` (stereo not shown) [BW 723C86] had a Replicate_1 of 2.832, a Replicate_2 of 3.4189 and a mean of 3.125.
